Measured values taken from ChEMBL document CHEMBL1201862, “PubChem BioAssay data set” (2004).
The source made the active and inactive calls.

Assays:
[1] = biological target: T1, Bcl-2-related protein A1 (Mus musculus, UniProt Q07440); assay: small-molecule antagonists of Bfl-1/BH3 interaction – biochemical, TR-FRET, mouse Bfl-1, confirmation (AID 621);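 also: TR-FRET binding of GST-Bfl-1 to FITC-labelled Bid peptide via terbium antibody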
T1 sequence (Q07440 whole entry): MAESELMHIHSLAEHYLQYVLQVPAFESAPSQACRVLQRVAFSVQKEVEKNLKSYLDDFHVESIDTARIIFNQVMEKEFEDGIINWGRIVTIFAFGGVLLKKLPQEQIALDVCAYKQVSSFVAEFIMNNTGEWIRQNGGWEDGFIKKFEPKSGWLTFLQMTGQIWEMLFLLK

[2] = biological target: Glyceraldehyde-3-phosphate dehydrogenase (Homo sapiens, UniProt P04406)
[3] = biological target: T1, Bcl-2-related protein A1; assay: Bfl-1 binding inhibitors, SAR follow-up, biochemical, fluorescence polarization (AID 1070)
[4] = Luminescence Cell-Based Dose Confirmation HTS to Identify Inhibitors of Platelet Dense Granule Release. [Related pubchem assays: 1663 (Primary HTS), 1678 (Summary of Project)]; assay type: functional
[5] = biological target: T2, Heat shock factor protein 1 (Mus musculus, UniProt P38532); assay: enhancement of HSF1-driven luciferase signal – cell-based, NIH3T3, luminescence, dose retest, confirmation (AID 435004); assay type: functional;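 also: stress induced by proteasome inhibitor MG132 added 30 min after compound; luciferase reporter driven by HSF1 response element in NIH3T3 cells; actives raise luminescence as potentiators of the MG132 stress response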
T2 sequence (P38532 whole entry): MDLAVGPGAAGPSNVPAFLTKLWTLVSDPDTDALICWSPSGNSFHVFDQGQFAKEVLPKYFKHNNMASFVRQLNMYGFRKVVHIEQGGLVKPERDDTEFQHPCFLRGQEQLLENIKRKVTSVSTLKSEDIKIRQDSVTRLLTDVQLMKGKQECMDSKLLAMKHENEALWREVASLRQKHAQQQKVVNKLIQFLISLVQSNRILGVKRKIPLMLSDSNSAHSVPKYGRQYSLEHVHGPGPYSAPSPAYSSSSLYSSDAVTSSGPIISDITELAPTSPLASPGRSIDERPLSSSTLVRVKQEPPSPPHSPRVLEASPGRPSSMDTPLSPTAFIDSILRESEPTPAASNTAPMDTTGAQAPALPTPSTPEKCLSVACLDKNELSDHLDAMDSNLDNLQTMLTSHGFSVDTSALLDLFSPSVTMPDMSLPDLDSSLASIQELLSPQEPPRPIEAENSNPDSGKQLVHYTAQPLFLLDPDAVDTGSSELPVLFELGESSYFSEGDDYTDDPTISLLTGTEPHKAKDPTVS

[6] = biological target: Luciferin 4-monooxygenase (Photinus pyralis, UniProt P08659); assay: inhibition of purified Photinus pyralis luciferase – biochemical, luminescence, dose response (AID 1891)
[7] = Fluorescence-based cell-based high throughput dose response assay for inhibitors of the interaction of nucleotide-binding oligomerization domain containing 2 (NOD2) and the receptor-interacting serine-threonine kinase 2 (RIPK2).; assay type: functional; conditions: Homo sapiens
[8] = biological target: Beta Lactamase (Pseudomonas aeruginosa, UniProt Q932Y6); assay: BLA reporter interference, concentration series – BLA reporter cells, FRET fluorescence, artefact control for NOD2-RIPK2 interaction inhibitor project, dose response (AID 651552); assay type: functional, cell-based
[9] = biological target: Beta-galactosidase (Escherichia coli, UniProt Q8VNN2); assay: detection-enzyme interference by beta-gal modulators – biochemical, E. coli enzyme, set 3, artefact control for CCR6 antagonist project, dose response (AID 504712); assay type: functional
[10] = Fluorescence Cell-Based Dose Response to Identify Inhibitors of Thrombin Receptor-Activating Peptide SFLLRN-Mediated P-Selectin Induction on Platelets. [Related pubchem assays: 1663 (Primary HTS), 1889 (retest at dose ), 1891 (counterscreen), 1678 (Project Summary)]; assay type: functional
[11] = biological target: Cytochrome P450 2C19 (Homo sapiens, UniProt P33261); assay: qHTS Assay for Inhibitors and Substrates of Cytochrome P450 2C19. [Related pubchem assays: 410 ]; assay type: ADME; conditions: read-out: Potency
[12] = biological target: Cytochrome P450 2C9 (Homo sapiens, UniProt P11712); conditions: Potency
[13] = biological target: Procathepsin L (Homo sapiens, UniProt P07711); assay: CTSL1 protease inhibition – biochemical, QFRET, 1536-well, counter-screen for M1/M17 aminopeptidase inhibitor project, dose response (AID 2214)
[14] = biological target: T3, Aminopeptidase N (Plasmodium falciparum FcB1/Columbia, UniProt O96935); assay: malaria alanyl aminopeptidase activity blockers – biochemical, fluorogenic H-Leu-NHMec substrate, 1536-well (AID 1445); parameters: species or system Plasmodium falciparum 3D7, 3D7
T3 sequence (O96935 whole entry): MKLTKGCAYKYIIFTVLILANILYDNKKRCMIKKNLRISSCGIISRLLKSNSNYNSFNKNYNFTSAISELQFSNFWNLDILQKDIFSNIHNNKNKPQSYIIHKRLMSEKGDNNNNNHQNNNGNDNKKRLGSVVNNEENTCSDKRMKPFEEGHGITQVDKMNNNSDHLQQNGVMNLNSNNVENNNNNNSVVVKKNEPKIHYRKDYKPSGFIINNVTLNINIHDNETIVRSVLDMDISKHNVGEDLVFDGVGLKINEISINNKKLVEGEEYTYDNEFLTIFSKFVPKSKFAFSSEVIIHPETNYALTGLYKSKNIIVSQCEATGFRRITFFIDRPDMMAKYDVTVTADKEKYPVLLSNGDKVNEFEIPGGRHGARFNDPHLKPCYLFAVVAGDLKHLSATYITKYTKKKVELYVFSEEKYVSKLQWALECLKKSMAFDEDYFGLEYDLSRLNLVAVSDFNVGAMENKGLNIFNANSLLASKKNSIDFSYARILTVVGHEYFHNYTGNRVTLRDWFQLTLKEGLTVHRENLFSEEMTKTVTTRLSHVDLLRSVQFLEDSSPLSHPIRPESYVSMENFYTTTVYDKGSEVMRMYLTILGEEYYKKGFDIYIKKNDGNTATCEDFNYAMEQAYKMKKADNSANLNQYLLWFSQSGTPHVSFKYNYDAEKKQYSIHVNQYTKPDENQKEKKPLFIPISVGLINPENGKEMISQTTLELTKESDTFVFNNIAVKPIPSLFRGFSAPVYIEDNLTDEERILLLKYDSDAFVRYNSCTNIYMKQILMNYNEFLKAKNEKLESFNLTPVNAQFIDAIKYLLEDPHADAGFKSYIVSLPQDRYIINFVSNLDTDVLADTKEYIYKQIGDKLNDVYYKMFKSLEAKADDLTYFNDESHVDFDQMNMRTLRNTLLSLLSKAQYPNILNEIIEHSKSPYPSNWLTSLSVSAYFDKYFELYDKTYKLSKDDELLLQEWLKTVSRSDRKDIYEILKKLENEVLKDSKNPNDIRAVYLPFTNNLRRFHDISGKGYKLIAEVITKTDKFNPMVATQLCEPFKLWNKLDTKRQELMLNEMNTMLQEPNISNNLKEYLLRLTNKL

[15] = biological target: Aspartyl aminopeptidase (Plasmodium falciparum 3D7, UniProt Q8I2J3); assay: Counterscreen for inhibitors of M1 and M17 aminopeptidases: QFRET-based biochemical high throughput dose response assay for inhibitors of the Plasmodium falciparum M18 Aspartyl Aminopeptidase (PFM18AAP). [Related PubChem assays: 1619 (Screening assay (M17LAP inhibitors).), 1445 (Screening assay (M1AAP inhibitors).)]
[16] = biological target: Aryl hydrocarbon receptor (Homo sapiens, UniProt P35869); assay: Luminescence-based cell-based high throughput dose response assay for activators of the Aryl Hydrocarbon Receptor (AHR). [Related pubchem assays: 2796 (Primary screen (AHR activators in singlicate)), 2845 (Confirmation screen (AHR activators in triplicate)), 434939 (Counterscreen (PXR activators in triplicate)), 2804 (Summary (AHR activators))]; assay type: ADME
[17] = Trypanosoma cruzi growth suppression in host cells – NIH3T3 host cells, beta-gal luminescence, confirmation (AID 2044); assay type: functional, cell-based;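 also: intracellular parasites grown in NIH/3T3 mouse fibroblasts as host cells; luminescent beta-galactosidase reporter signal from transgenic T. cruzi replicating inside host cells; inhibitors lower the luminescence signal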
[18] = biological target: T4, Streptokinase A (Streptococcus pyogenes serotype M1, UniProt P10520); assay: viability-normalized secreted streptokinase activity reduction – plasminogen activation absorbance, OD405, dose response (AID 1914); assay type: functional, Streptococcus pyogenes M1 GAS;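 also: secreted streptokinase activity via plasminogen activation per viability signal from cell pellet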
T4 sequence (P10520 whole entry): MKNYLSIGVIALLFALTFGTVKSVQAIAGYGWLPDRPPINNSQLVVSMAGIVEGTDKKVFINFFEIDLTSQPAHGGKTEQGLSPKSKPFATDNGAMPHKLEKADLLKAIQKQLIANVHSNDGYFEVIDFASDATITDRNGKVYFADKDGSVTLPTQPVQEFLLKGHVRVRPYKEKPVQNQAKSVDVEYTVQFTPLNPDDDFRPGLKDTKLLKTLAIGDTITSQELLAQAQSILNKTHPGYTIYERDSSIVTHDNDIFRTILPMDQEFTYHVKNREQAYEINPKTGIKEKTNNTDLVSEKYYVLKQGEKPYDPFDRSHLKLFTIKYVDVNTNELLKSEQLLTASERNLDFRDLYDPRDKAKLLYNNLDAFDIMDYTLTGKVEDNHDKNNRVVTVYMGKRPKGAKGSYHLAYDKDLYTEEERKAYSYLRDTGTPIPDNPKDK

[19] = tested on: Streptococcus sp. 'group A'; assay: Streptococcus pyogenes SK(-)GAS viability under kanamycin – luminescence, BacTiterGlo, confirmation, counter-screen for streptokinase expression inhibitor project, dose response (AID 1900); assay type: functional, organism-based
[20] = tested on: Streptococcus; assay: GAS UMAA2166 growth inhibition – luminescence, BacTiterGlo, counter-screen for streptokinase expression inhibitor project, dose response (AID 1915); assay type: functional, organism-based;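 also: potency for reduction of bacterial viability or growth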
[21] = NIH3T3 cell viability loss – ATP luminescence, mouse fibroblasts, counter-screen, dose response (AID 2010); assay type: functional, cell-based;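 also: cells exposed to compound for about 90 hours before reading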
[22] = tested on: Vero; assay: mammalian cell viability reduction – secondary assay, cytotoxicity control for West Nile virus antiviral project, dose response (AID 1650); assay type: functional; conditions: Chlorocebus sabaeus
[23] = Luminescence Cell-Based Dose Response to Identify Activators of 5'UTR Stem-Loop Driven Prion Protein mRNA Translation in H4-C Neuroglioblastoma Cells. [Related pubchem assays: 1829 (Project Summary), 1814 (Primary HTS)]; assay type: functional
[24] = Luminescence Cell-Based Dose Confirmation to Identify Activators of 5'UTR Stem-Loop Driven Alpha-Synuclein mRNA Translation in H4 Neuroglioblastoma Cells. [Related pubchem assays: 1829 (Project Summary), 1814 (Primary HTS)]; assay type: functional
[25] = tested on: H4; assay: Luminescence Cell-Based Dose Response HTS to Identify Activators of 5'UTR Stem-Loop Driven Prion Protein mRNA Translation in H4 Neuroglioblastoma Cells. [Related pubchem assays: 1829 (Project Summary), 1814 (Primary HTS)]; assay type: functional; conditions: Homo sapiens
[26] = Luminescence Cell-Based Dose Response to Identify Activators of Luciferase Translation or Activity in H4-C Neuroglioblastoma Cells. [Related pubchem assays: 1829 (Project Summary), 1814 (Primary HTS)]; assay type: functional
[27] = Luminescence Cell-Based Dose Confirmation HTS to Identify Activators of 5'UTR Stem-Loop Driven Alpha-Synuclein mRNA Translation in H4 Neuroglioblastoma Cells. [Related pubchem assays: 1829 (Project Summary), 1814 (Primary HTS)]; assay type: functional
[28] = biological target: Sphingosine 1-phosphate receptor 1 (Homo sapiens, UniProt P21453); assay: Dose Response Cell-Based Assay for Agonists of the Sphingosine 1-Phosphate Receptor 1 (S1P1): Purchased Analogues. [Related pubchem assays: 1192, 373, 439 ]; assay type: functional
[29] = biological target: Sphingosine 1-phosphate receptor 3 (Homo sapiens, UniProt Q99500); assay: Dose Response Cell-Based Assay for Agonists of the Sphingosine 1-Phosphate Receptor 3 (S1P3): Purchased Analogues. [Related pubchem assays: 373, 439 ]; assay type: functional
[30] = biological target: Sphingosine 1-phosphate receptor 2 (Homo sapiens, UniProt O95136); assay: Dose Response Cell-Based Assay for Agonists of the Sphingosine 1-Phosphate Receptor 2 (S1P2): Purchased Analogues. [Related pubchem assays: 1192, 373, 439 ]; assay type: functional
Sequence of Sphingosine 1-phosphate receptor 2 (O95136 whole entry): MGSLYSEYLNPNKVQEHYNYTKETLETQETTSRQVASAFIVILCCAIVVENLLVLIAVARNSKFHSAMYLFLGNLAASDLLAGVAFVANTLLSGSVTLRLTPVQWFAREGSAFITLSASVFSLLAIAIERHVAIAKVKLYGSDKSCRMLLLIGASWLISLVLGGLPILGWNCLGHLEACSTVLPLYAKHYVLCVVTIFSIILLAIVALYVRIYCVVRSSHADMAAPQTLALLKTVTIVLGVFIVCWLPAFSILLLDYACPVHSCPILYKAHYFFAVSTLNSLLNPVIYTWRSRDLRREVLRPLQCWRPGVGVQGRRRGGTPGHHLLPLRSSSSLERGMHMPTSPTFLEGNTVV

Sequence of Beta-galactosidase (Q8VNN2 whole entry): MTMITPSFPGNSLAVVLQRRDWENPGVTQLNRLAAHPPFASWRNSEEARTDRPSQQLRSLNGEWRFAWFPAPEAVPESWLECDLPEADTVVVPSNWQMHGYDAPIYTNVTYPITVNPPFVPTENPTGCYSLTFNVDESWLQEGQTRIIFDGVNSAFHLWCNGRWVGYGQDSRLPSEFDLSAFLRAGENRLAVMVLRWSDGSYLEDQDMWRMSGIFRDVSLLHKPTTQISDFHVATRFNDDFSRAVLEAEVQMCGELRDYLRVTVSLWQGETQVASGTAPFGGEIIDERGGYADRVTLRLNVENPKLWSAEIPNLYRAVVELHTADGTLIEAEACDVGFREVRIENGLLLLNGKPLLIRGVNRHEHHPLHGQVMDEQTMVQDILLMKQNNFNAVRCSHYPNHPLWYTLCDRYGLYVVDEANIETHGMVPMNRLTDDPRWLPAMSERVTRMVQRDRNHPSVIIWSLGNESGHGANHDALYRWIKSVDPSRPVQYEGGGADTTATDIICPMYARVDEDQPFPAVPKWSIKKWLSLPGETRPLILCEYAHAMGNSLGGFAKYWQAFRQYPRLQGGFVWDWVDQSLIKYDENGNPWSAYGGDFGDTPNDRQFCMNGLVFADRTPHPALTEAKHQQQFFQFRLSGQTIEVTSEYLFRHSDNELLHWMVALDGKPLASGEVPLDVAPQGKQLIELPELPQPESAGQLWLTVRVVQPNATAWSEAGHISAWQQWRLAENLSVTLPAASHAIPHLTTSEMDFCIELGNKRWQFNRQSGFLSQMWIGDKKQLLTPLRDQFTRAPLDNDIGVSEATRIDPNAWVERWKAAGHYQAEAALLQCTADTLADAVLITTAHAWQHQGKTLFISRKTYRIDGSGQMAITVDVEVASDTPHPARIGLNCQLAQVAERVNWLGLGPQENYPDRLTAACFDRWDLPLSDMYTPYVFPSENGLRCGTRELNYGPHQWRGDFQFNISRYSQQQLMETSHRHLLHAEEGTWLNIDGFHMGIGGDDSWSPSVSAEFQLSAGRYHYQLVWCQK
Sequence of Glyceraldehyde-3-phosphate dehydrogenase (P04406 whole entry): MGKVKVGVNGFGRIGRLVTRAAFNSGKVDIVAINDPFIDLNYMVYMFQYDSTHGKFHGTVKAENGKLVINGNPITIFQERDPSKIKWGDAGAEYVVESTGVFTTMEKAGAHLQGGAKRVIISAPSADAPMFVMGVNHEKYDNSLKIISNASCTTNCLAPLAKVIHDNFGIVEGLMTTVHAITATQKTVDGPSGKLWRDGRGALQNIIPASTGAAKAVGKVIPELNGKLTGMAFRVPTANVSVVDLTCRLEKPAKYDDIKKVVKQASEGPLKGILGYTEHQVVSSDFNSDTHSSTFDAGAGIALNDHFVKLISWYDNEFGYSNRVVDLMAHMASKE
Sequence of Luciferin 4-monooxygenase (P08659 whole entry, the tested form may be a part): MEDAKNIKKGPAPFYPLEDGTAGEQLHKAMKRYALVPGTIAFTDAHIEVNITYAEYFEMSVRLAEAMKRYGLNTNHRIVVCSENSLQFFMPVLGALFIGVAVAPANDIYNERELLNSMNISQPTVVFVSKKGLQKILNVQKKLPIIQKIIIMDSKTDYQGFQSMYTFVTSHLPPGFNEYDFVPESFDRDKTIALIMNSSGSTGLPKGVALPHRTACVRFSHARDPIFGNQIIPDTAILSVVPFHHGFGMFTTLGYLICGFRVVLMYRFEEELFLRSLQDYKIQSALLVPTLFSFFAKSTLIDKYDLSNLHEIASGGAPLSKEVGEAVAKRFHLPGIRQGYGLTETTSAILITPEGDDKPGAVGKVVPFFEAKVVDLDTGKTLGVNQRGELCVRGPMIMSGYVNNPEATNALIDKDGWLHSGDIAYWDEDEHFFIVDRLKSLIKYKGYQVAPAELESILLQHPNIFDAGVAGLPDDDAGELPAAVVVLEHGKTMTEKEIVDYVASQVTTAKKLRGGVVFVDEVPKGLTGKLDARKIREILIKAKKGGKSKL
Sequence of Cytochrome P450 2C9 (P11712 whole entry): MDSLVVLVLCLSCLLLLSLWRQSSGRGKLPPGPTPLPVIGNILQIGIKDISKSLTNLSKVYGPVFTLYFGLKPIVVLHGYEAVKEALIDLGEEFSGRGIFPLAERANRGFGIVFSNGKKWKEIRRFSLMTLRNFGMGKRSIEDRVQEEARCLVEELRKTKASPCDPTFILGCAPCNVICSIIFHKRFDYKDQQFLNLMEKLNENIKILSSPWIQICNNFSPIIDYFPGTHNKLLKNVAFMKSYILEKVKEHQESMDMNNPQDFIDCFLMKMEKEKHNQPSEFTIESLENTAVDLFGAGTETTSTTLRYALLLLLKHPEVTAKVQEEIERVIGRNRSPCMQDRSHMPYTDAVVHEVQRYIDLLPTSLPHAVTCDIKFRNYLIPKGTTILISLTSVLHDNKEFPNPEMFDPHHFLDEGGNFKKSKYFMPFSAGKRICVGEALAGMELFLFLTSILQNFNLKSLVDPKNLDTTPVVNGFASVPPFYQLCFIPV
Sequence of Beta Lactamase (Q932Y6 whole entry): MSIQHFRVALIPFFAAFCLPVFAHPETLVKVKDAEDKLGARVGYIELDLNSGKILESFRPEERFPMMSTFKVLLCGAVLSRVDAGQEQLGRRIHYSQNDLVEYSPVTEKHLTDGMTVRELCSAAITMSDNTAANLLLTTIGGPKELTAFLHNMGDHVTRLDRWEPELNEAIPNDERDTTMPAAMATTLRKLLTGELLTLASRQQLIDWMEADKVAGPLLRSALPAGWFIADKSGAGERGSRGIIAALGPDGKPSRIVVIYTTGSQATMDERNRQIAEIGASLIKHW
Sequence of Aspartyl aminopeptidase (Q8I2J3 whole entry): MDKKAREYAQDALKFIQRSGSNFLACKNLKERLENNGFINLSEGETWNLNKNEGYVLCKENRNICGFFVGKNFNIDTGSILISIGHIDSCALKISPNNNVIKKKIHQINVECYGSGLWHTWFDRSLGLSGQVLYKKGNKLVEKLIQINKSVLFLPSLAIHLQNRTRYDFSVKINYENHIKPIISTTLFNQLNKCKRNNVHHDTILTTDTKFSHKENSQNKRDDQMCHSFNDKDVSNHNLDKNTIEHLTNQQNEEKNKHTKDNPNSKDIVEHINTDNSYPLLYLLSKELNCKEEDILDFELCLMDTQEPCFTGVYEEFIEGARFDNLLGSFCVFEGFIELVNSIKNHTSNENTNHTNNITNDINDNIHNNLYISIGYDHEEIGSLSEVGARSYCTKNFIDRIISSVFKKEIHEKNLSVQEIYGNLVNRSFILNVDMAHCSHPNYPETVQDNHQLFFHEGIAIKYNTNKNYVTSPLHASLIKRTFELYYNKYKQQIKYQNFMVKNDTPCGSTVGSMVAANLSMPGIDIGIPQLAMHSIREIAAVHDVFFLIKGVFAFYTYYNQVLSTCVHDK
Sequence of Sphingosine 1-phosphate receptor 3 (Q99500 whole entry): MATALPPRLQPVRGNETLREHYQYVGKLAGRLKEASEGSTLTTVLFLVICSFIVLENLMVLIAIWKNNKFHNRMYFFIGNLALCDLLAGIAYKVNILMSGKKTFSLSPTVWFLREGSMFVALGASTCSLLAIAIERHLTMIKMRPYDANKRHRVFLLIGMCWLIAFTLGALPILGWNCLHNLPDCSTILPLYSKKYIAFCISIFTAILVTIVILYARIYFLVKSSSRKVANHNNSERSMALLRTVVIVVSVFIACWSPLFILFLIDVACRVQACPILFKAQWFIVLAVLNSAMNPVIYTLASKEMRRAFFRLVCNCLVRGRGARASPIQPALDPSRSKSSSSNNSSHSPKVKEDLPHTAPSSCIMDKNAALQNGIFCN
Sequence of Aryl hydrocarbon receptor (P35869 whole entry): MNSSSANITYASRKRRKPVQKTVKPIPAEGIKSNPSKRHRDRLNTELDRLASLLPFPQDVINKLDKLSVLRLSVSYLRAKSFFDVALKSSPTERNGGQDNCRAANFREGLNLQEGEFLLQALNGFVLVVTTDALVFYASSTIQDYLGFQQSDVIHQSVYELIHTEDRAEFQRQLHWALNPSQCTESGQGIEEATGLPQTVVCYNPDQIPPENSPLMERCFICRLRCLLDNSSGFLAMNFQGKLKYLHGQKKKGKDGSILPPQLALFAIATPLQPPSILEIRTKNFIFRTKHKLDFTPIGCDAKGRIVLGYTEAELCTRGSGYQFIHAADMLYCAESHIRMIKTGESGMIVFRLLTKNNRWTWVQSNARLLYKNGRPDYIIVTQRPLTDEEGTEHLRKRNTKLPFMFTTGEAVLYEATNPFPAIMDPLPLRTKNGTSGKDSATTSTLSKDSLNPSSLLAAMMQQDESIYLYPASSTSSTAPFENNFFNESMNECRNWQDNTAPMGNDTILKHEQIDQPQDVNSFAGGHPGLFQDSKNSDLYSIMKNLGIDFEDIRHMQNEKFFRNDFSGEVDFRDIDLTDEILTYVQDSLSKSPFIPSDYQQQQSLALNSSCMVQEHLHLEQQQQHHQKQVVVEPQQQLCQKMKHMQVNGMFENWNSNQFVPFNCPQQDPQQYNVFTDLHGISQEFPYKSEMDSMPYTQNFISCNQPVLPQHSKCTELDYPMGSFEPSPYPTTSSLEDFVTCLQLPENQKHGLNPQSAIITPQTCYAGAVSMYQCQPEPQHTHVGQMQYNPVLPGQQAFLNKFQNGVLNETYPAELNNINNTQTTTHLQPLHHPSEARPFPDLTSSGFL

SMILES: O=C1C(Cl)=C(N2CCN(c3cccc(C(F)(F)F)c3)CC2)C(=O)N1c1ccc(Cl)c(Cl)c1
- IC50 [1]: > 100 µM (not active)
- IC50 [2]: > 100 µM (not active)
- IC50 [3]: > 100 µM (not active)

SMILES: Cc1ccc(NN2C(=O)C=C(c3ccccc3)C2=O)cc1
- EC50 [4]: 5.06 µM (active)
- EC50 [5]: 10.5 µM (active)
- EC50 [6]: > 112 µM (not active)
- IC50 [7]: 1.72 µM (active)
- IC50 [8]: 28.7 µM (inactive)
- IC50 [9]: > 66.6 µM (inactive)
- EC50 [10]: < 30 µM (active)

SMILES: COc1ccc(C(=O)[C@H]2[C@H]3[C@@H](C(=O)[C@@H]4OC[C@H]3O4)[C@H]3C=Cc4ccccc4N32)c(OC)c1
- AC50 [11]: 31.6 µM (inconclusive)
- AC50 [12]: 31.6 µM (inconclusive)

SMILES: O=C(NCc1ccco1)C1CCCN(S(=O)(=O)c2cccc3nonc23)C1 (stereo not given)
- IC50 [13]: > 59.6 µM (not active)
- IC50 [14]: 18.6 µM (active)
- IC50 [15]: > 73.5 µM (not active)

SMILES: Cc1ccc(-c2cc(-c3cccs3)[nH]n2)c(O)c1
- EC50 [16]: 1.21 µM (active)

SMILES: O=C(Nc1ccc(OC(F)(F)F)cc1)N1CCN(c2ccnc3cc(Cl)ccc23)CC1
- EC50 [17]: 2.06 µM (active)
- EC50 [18]: 12.7 µM (active)
- EC50 [19]: 9.61 µM (active)
- EC50 [20]: > 150 µM (not active)
- EC50 [21]: 14.4 µM (active)
- CC50 [22]: 2.95 µM (active)

SMILES: CCc1cc2c(=O)n3c(nc2s1)-c1[nH]c2ccc(OC)cc2c1CC3
- EC50 [23]: > 12 µM (not active)
- EC50 [24]: 0.498 µM (active)
- EC50 [25]: 3.18 µM (active)
- EC50 [26]: 0.354 µM (active)
- EC50 [27]: < 0.1 µM (active)

SMILES: O=C(NC1CCCCC1)c1cc(-c2ccccc2)on1
- EC50 [28]: 0.897 µM (active)
- EC50 [29]: > 50 µM (not active)
- EC50 [30]: > 10 µM (not active)
